Laboratory results as given in the NIST ThermoML archive (doi:10.1021/acs.jced.5b00986).
Numbers after ± are expanded uncertainties.

Conditions: Liquid, Dynamic light scattering

Structure (SMILES) | thermal diffusivity (423.73 K) [m2/s] | thermal diffusivity (448.23 K) [m2/s] | thermal diffusivity (473.1 K) [m2/s] | thermal diffusivity (498.16 K) [m2/s] | thermal diffusivity (523.18 K) [m2/s] | thermal diffusivity (448.09 K) [m2/s] | thermal diffusivity (448.57 K) [m2/s] | thermal diffusivity (473.26 K) [m2/s]
CCCCCCCCCCCC [dodecane] | 5.83e-08 ± 3e-09 | 5.23e-08 ± 2.2e-09 | 4.87e-08 ± 2e-09 | 4.58e-08 ± 3.4e-09 | 4.25e-08 ± 2.6e-09 |  |  | 
CCCCCCCCCCCCCCCCCCCCCCCCCCCCCCCCCCCCCCCC [tetracontane] |  |  |  |  |  | 6.57e-08 ± 3.4e-09 | 6.73e-08 ± 4.3e-09 | 6.86e-08 ± 8e-09
